# In patent US20210340629A1, “BIOMARKERS FOR CANCER THERAPY” (The Council of the Queensland Institute of Medical Research, priority 2018, published 2021):
# Key:
# LC3B = assay: EGFP-LC3B immunofluorescence analysis (punctate pattern); assay type: cell-based, human; conditions: D05 and C092 cell lines, 5 μM, 8 hours, data not shown
# Procedure: Retroviral constructs expressing short hairpin RNA to G9a (shG9a) or a non-silencing control (shNS) were used as previously described (Casciello et al. (2017) Proc Natl Acad Sci USA 114, 7077-7082). pBABE-puro mCherry-EGFP-LC3B was obtained from Addgene (plasmid #22418) (N'Diaye et al. (2009) EMBO reports 10, 173-179). The viral supernatants were prepared by co-transfecting the constructs with pUMVC3 and pVSV-G into HEK293T cells using Superfect transfection reagent (Qiagen). The supernatants were harvested and used to infect cells in medium, which contained 8 μg/ml polybrene. Cell medium was replaced and fresh growth medium was added after 24 h. Cells were harvested 72 h later or selected using 1 μg/ml of Puromycin sulfate.
# Stable cells expressing EGFP-LC3B construct were treated with DMSO, UNC0642 at 5 μM or 20 nM Bafilomycin A1 (Sigma Aldrich) for 8 hours. Images were taken with an EVOS FL auto fluorescent microscope (Invitrogen) and quantitated using ImageJ software.
# LC3B II = assay: Immunoblotting analysis of LC3B I/II; assay type: cell-based, human; conditions: D05 and C008 cell lines, 5 μM, 8 hours, FIG. 6
# Procedure: For immunoblotting, protein whole cell lysates were prepared using RIPA lysis buffer containing 20 mM Tris, pH 8.0, 150 mM NaCl, 10% glycerol, 1% Nonidet P-40 containing protease inhibitor cocktail (Roche). Nuclear extracts were obtained using a standard high salt extraction buffer (20 mM HEPES (pH 7.9), 0.32 M NaCl, 1 mM EDTA, and 1 mM EGTA) supplemented with 1mM DU and protease inhibitor cocktail. Protein assays were performed according to the Bradford method using a protein assay kit (BioRad). […] of denatured proteins were separated using 10% sodium dodecyl sulfate-polyacrylamide gel electrophoresis (SDS-PAGE) and transferred to Polyvinylidene difluoride (PVDF) membranes. The membranes were blocked for 1 hour in 5% skim milk in Tris-buffered saline with Tween 20 (TBST; 10 mM Tris-HCl, 150 mM NaCl, 0.1% Tween 20). Immunoblotting was performed with primary anti G9a (#3306, Cell Signaling), H3K9me2 (ab 1220, Abcam), H3 (ab1791, Abcam) or Tubulin (ab6046, Abcam) and detected with either HRP-conjugated anti-rabbit (#7074, Cell Signaling Technology) or HRP-conjugated anti-mouse (#7076, Cell Signaling Technology). After applying ECL detection reagents (GE Healthcare), protein bands were visualized using X-ray film (Fujifilm).
# Immunoblotting analysis was performed as described above, but also utilizing an anti-LC3B primary antibody (ab48394, Abcam).
# [1] = tested on: PD-L1 and PD-1 in CD8+ T cells; assay: Flow cytometry analysis of tumor infiltrating lymphocytes from AT3 tumors; assay type: in vivo, C57BL/6 mice; conditions: TILs from AT3 tumors, UNC0642 25 mg/kg every 2 days for 14 days, FIG. 18
# From the text: C57BL/6 mice were purchased from the ARC Animal Resources Centre and used between the ages of 6 and 16 weeks. Groups of 3 to 8 mice per experiment were used for experimental assays, to ensure adequate power to detect biological differences. All experiments were approved by the QIMR Berghofer Medical Research Institute Animal Ethics Committee.
# The C57BL/6 AT3 mammary adenocarcinoma (obtained from Dr. Trina Stewart in 2009, Peter MacCallum Cancer Centre, Melbourne, Australia) were maintained as previously described (Casciello et al PNAS 2017). The AT3 cell line was tested negative for mycoplasma. For in vivo experiments, 1×10^5 cells were subcutaneously injected into mice in a 100 μL volume.
# AT3 tumor growth was measured using a digital caliper, and tumor volumes were presented as mean±SEM. For flow cytometry analyses of intratumor immune cells, mice bearing established AT3 tumor (days 14-19) were treated with the indicated antibodies or reagents and immune cells were isolated 48 to 72 hours post treatment.
# Tumors tissues were harvested from mice that had been treated with mAb or otherwise and processed for flow cytometry analysis. […]
smiles,measurement,setting,value
COc1cc2c(NC3CCN(C(C)C)CC3)nc(N3CCC(F)(F)CC3)nc2cc1OCCCN1CCCC1 [UNC0642],distribution of EGFP-LC3B (punctate pattern),LC3B,increase in punctate pattern
same,LC3B II protein levels,LC3B II,dramatically increased
same,PD-L1 and PD-1 in CD8+ T cells,[1],down-regulation
